Two compounds from publication PMC9226124, “Macrocycle-stabilization of its interaction with 14-3-3 increases plasma membrane localization and activity of CFTR” (Nature Communications, 2022) can be followed below.

Molecules are shown by their SMILES. “And” between values parts separate entries of the source, which are not always exact repeats. Equal entries are not always repeated.

For this experiment, the target named is T1, F508del-CFTR in BHK cells (Homo sapiens, UniProt P13569, DEL508-508).
T1 construct: expressed in transfected cells; host or cells: baby hamster kidney (BHK) cells
The experiment is described as follows: FLIPR membrane potential (FMP) assay. Format: cell-based, hamster. The note with it: individual replicates. On the procedure: Twelve (12) validated hit compounds from the initial screening and focused validation library were tested for their effect on F508del-CFTR trafficking. Baby hamster kidney (BHK) cells expressing 3HA-tagged F508del-CFTR were treated for 24 h with 10 μM compound. After fixation of the cells, a combination of mouse monoclonal anti-HA antibody and anti-mouse IgG conjugated with FITC was used to detect F508del-CFTR that had trafficked to the plasma membrane as described previously. […] Additionally, a fluorescence imaging plate reader (FLIPR) Membrane Potential (FMP) assay was performed. This assay measures real-time membrane potential changes associated with ion channel activation and ion transporter proteins. F508del-CFTR expressing BHK cells were incubated for 24 h with 20 μM compound before treatment with the potentiator genistein, FMP dye, and activator forskolin. The fluorescence intensity is thus a measure for the function of the CFTR protein in the plasma membrane of these cells. The F508del-CFTR corrector VX-809 (lumacaftor) and the triple combination Trikafta® were used as positive controls in this assay. […] Another cellular assay was performed with the Ussing Chamber, which detects and quantifies transport of ions across epithelial tissue. F508del-CFTR expressing cystic fibrosis epithelial (CFBE) cells were treated for 18 h with 20 μM CY007424. After forskolin and genistein stimulation, the short-circuit current of the cells was measured.
Fig. 5 Cellular activity of macrocycles stabilizing the 14-3-3/CFTR PPI. a Surface expression of 3HA-tagged F508del-CFTR in BHK cells incubated for 24 h with 10 μM compound and treated with mouse monoclonal anti-HA antibody and anti-mouse IgG conjugated with FITC (n = 4 or n = 3 biological replicates, bars represent the mean). b, c FLIPR Membrane Potential (FMP) assay of F508del-CFTR expressing BHK cells treated for 24 h with the macrocycles (b, n = 6 biological replicates, bars represent the mean) or with CY007424 and/or VX-809 or Trikafta®, with and without CFTR inhibitor INH172 (c, n = 4 biological replicates, bars represent the mean). d Using chamber experiment of F508del-CFTR expressing CFBE cells treated for 18 h with CY007424, VX-809, or Trikafta® or in combinations. CFTR activity is assayed by measurement of short-circuit current of cells after stimulation by forskolin and the potentiator genistein (n = 3 or n = 6 biological replicates, bars represent the mean). Source data are provided as a Source Data file.
The FLuorescence Imaging Plate Reader (FLIPR) Membrane Potential (FMP) assay is based on the technique developed by Van Goor et al.[30] F508del-CFTR expressing baby hamster kidney (BHK) cells were incubated with the compounds for 24 h at 37 °C. The growth medium was removed from the cells by inverting the plate and FMP dye (Molecular Devices, Part #R8042) including the potentiator genistein (Sigma, G6649) was added back in 70 μl of low Cl^- containing buffer (160 mM NaGluconate, 4.5 mM KCl, 2 mM CaCl2, 1 mM MgCl2, 10 mM D-Glucose, 10 mM HEPES (pH7.4)). The plates were incubated for 5 min at RT before activation of CFTR in the plate reader (SynergyMX) with the addition of 14 µL of FMP dye in low Cl^- buffer containing 6x forskolin (Sigma, F6886) following a 2 min baseline read. Fluorescence intensity was monitored for 5 min following CFTR activation. Reported is the rate of fluorescence intensity change over time.

T1 sequence (P13569 with tags, fused parts or gaps DEL508-508): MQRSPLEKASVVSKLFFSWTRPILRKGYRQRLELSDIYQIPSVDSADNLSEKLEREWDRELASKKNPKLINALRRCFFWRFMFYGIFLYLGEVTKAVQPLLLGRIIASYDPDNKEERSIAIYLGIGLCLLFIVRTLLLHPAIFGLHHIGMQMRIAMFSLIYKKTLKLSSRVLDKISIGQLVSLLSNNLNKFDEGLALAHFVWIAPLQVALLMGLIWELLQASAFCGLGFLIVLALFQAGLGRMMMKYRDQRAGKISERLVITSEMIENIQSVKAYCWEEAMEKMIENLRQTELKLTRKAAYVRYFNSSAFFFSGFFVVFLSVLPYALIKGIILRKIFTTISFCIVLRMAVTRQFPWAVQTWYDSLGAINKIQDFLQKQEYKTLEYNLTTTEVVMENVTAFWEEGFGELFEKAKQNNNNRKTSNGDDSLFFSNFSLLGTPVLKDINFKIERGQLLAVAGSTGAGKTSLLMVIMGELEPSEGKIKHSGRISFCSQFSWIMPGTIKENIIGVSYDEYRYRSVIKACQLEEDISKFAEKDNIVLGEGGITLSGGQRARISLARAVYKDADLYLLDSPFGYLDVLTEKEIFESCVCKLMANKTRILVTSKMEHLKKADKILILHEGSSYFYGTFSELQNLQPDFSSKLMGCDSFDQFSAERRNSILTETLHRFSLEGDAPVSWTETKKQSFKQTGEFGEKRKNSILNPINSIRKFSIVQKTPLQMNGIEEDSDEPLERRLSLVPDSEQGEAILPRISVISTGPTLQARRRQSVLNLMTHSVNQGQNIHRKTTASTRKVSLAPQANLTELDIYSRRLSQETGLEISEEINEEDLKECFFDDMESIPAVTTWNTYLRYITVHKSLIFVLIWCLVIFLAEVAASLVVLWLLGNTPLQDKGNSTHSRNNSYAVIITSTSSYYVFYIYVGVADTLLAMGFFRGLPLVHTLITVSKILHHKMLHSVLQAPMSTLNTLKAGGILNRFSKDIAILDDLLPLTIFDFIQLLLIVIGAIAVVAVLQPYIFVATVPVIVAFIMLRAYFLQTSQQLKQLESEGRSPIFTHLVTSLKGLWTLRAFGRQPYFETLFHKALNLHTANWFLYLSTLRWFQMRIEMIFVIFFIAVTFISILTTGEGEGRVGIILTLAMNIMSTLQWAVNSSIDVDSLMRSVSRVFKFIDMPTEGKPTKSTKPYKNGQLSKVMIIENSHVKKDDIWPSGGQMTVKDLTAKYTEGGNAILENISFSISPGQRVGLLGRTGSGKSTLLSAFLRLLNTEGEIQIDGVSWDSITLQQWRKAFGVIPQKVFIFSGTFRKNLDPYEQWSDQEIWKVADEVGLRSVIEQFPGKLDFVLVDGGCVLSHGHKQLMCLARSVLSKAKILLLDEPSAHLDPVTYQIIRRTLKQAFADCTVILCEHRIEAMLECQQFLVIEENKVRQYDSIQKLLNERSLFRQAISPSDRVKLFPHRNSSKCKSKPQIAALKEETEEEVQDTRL

As for `NCCCCC1NCc2ccccc2Sc2ccccc2CNC(=O)C(Cc2cccc(Cl)c2)NC(=O)C(Cc2ccc(O)cc2)NC1=O` (centres unmarked) [CY007288], the “FMP assay signal (Fig5b)” value is 56.536 and 49 and 51.321 and 53.964 and 53 and 52.964.
In the case of `NCCCC1NCc2ccccc2Sc2ccccc2CNC(=O)C(Cc2c[nH]c3ccccc23)NC(=O)C(Cc2ccccc2)NC1=O` (centres unmarked) [CY007345] it was 99.75 and 93 and 100.071 and 96.107 and 84.214 and 89.179.
